Data as given in patent publication US10561638B2, “Methods for treating dependence” (Biotie Therapies, Inc., priority 2007, dated 2020).

Tested on: rats
Test: Chronic (10 day) dosing behavioral tests in rats
Settings: for acoustic startle reactivity: 50 mg/kg
Description: The effects of chronic dosing of nepicastat in rats were examined. Between three and thirteen days prior to the first dosing day the rats were placed inside the startle apparatus and after a five minute acclimation period they were presented with a 118 dB noise burst on average once a minute (a variable inter-trial interval ranging between 30 and 90 seconds will be used) for 20 minutes. The startle responses were measured and a mean for the last twenty startle response was calculated for each rat.
The following behavioral tests were administered during and after chronic dosing; body core temperature, motor activity, acoustic startle reactivity, and pre-pulse inhibition of acoustic startle.
The animals were tested in an enclosed room with a white noise generator running Motor activity tests were conducted immediately after the body core temperature reading taken on dosing day ten (about 3 hours and 35 minutes after the morning daily dose of nepicastat, and SKF-102698, and 20 minutes prior to the daily administration of clonidine and d-amphetamine on dosing day ten). Motor activity tests were run for one hour. A diagnostic program was run on each of the motor activity chambers prior to each test session to assure that the photo beams and light sensors were operating properly. […] D-amphetamine was used as the positive control for this assay.
Rat body core temperatures were obtained by inserting the rectal probe 2 cm into the colon of each rat. Each rat's body core temperature was measured three times and the average of the three reading was calculated. Body core temperature readings were obtained immediately prior to the ten day chronic dosing schedule (to obtain a baseline), and three and half hour after the morning daily dose of nepicastat, and SKF-102698, and 15 minutes prior to the daily administration of clonidine and d-amphetamine, on dosing days one, five and ten. […] Both clonidine (an alpha2 agonist), and d-amphetamine (a dopamine releaser) were used as the positive controls for this assay.
Acoustic startle reactivity (a series of muscle contractions elicited by an intense burst of noise with a rapid onset), and pre-pulse inhibition (sensorimotor gating measured by analyzing any decrease in startle reactivity which occurs when a startling stimulus is immediately preceded by a non startling stimulus) were both measured in eight SR-Lab (San Diego Instruments, San Diego, Calif.) test stations. The rats were placed individually in a Plexiglas cylinder (10 cm diameter) which was housed in a ventilated sound-attenuating enclosure. Acoustic noise bursts (a broad band noise with a rise time and fall time of 1 msec) were presented via a speaker mounted 30 cm above the animal. Also, these speakers produced a 68 dB level of background noise throughout all test sessions. A piezoelectric accelerometer attached below the plexiglass cylinder transduced the subject's movement into a voltage which was then rectified and digitized (on a scale from 0 to 4095) by a PC computer equipped with SR-Lab software and interface assembly. A decibel meter was used to calibrate the speakers in each of the eight test station to ±1% of the mean. Additionally, a SR-Lab calibrating instrument was used to calibrate each of the eight startle detection apparatuses to ±2% of the mean. Startle reactivity and pre-pulse inhibition tests were run concurrently immediately alter the motor activity test (about 4 hours and 40 minutes after the morning daily injection of nepicastat, and SKF-102698, and 10 minutes after a supplemental administration of clonidine and d-amphetamine on dosing day ten).

Row | SMILES | pre-pulse inhibition (dosing day ten) | locomotor activity vs vehicle (dosing day ten, nepicastat 5, 15, 50, SKF-102698 50 mg/kg bid, clonidine 20 μg/kg, d-amphetamine 2 mg/kg bid) | pre-pulse inhibition (rat, in vivo) | acoustic startle reactivity (rat, in vivo) | body core temperature (rat, in vivo)
1 | Fc1cc(F)cc(Cn2cc[nH]c2=S)c1 [SKF-102698, reference compound] | Neither d-amphetamine nor SKF-102698 was significantly different | significantly lower locomotor activity | marginally higher percent prepulse inhibition | significantly lower startle response compared to cyclodextrin | 
2 | Cl.NCc1c[nH]c(=S)n1[C@H]1CCc2c(F)cc(F)cc2C1 [nepicastat, (S)-5-Aminomethyl-1-(5,7-difluoro-1,2,3,4-tetrahydronaphth-2-yl)-2,3-dihydro-2-thioxo-1H-imidazole hydrochloride] |  |  | None of the nepicastat dose groups were significantly different | significantly higher startle response than the SKF-102698 | unaffected
